These results are taken from patent US20260225889A1, “Spherical nanoparticles for improved composite materials” (Stichting Radboud universitair medisch centrum, priority 2023, published 2026).

Data set [1] has as its system intracellular S. aureus-mCherry. It counts as cell-based, S. aureus strain RN4220. Particulars: 24 h; for survival of intracellular S. aureus: systemically delivered: dissolved zinc (300 μM), dissolved vancomycin (5.5 μM), versus 'no treatment'.
Description: S. aureus strain RN4220 expressing mCherry fluorescent protein (S. aureus-mCherry) was used for in vitro studies. Bacterial inoculums were prepared by culturing S. aureus-mCherry in tryptic soy broth (TSB; BD Difco, Leeuwarden, the Netherlands) supplemented with 10 μg/mL chloramphenicol (Merck) shaking at 120 rpm and 37° C. to the mid logarithmic growth phase. S. aureus-mCherry bacteria were pelleted by centrifugation (3000 g, 10 min), re-suspended in 1 mL of NaCl and 0.25 mL human serum (H1 serum, Bio Whittaker, MD, USA) and incubated for 20 min. The inoculum was adjusted to 10^8 CFU/mL with RPMI based on the optical density value at wavelength 620 (OD620). The human THP-1 macrophages were seeded as described above in 96-well plates at a concentration of 100.000 cells/cm^2. After 48 h, the media was replaced by 1 μL of the bacterial inoculum (bacteria to cell ratio of 1:1) and incubated for 45 min at 37° C. and 5% CO2. Afterwards, the human THP-1 macrophages were washed three times with 50 μL PBS and one time with 200 μL PBS to prevent carry-over of planktonic S. aureus-mCherry. RPMI media supplemented with 5 μg/mL gentamycin (Sigma-Aldrich) was added to control the extracellular growth of S. aureus-mCherry.
The human THP-1 macrophages were allowed to phagocytose S. aureus-mCherry as described above. To investigate the intracellular killing efficiency of the synthesized NPs, RPMI media with 5 μg/ml gentamycin was enriched with 50 μg/ml of synthesized NPs for 24 h. Moreover, to assess the synergistic effect of zinc and vancomycin, a combination of 20 mol % ZnHA and VGelA NPs was added to the co-culture in different concentrations. After 24 h, the human THP-1 macrophages were lysed with 100 μl of 0.025% TritonX-100 to determine the amount of intracellular S. aureus-mCherry number. After lysis, the solution was serial diluted in PBS and spot-plated on agar plates. […] Additionally, the viability of the THP-1 macrophages is assessed using a LIVE/DEAD cell viability assay (Invitrogen, Waltham, MA, USA) as mentioned above. […]
The test system of data set [2] is human THP-1 macrophages. The data set is described as follows: LIVE/DEAD cell viability assay of THP-1 macrophages with phagocytosed S. aureus. Type of data set: cell-based. Particulars: systemic zinc 75 μM, 24 h. The protocol: Additionally, a LIVE/DEAD cell viability assay (Invitrogen, Waltham, MA, USA) was used according to the manufacturer's instructions to visualize the cells after 24 h of phagocytosis. In brief, 100 μL of 4 μM Ethidium homodimer 1 and 2 μM calcein AM solution in PBS was added to the human THP-1 macrophages and incubated for 30 min before visualization using a Leica SP8-X DLS Lightsheet microscope (Leica Microsystems, Wetzlar, Germany). Human THP-1 macrophages without phagocytosed S. aureus-mCherry served as negative control. The amount of living cells were quantified by counting using three LIVE/DEAD images and compared between macrophages with and without phagocytosed S. aureus.
The human THP-1 macrophages were allowed to phagocytose S. aureus-mCherry as described above. To investigate the intracellular killing efficiency of the synthesized NPs, RPMI media with 5 μg/ml gentamycin was enriched with 50 μg/ml of synthesized NPs for 24 h. Moreover, to assess the synergistic effect of zinc and vancomycin, a combination of 20 mol % ZnHA and VGelA NPs was added to the co-culture in different concentrations. […] Additionally, the viability of the THP-1 macrophages is assessed using a LIVE/DEAD cell viability assay (Invitrogen, Waltham, MA, USA) as mentioned above. […]

In data set [3] the test system is human THP-1 macrophages. Briefly: Internalization of labelled nanoparticles in human THP-1 macrophages (confocal overlay). It counts as cell-based.
Description: For cell culture experiments, human THP-1 macrophages (American Type Culture Collection, Manassas, USA) were maintained in Roswell Park Memorial Institute (RPMI) 1640 media supplemented with 2 mM Glutamine (GIBCO, New York, NY, USA) and 100/fetal bovine serum (FBS, Sigma-Aldrich). The human THP-1 macrophages were sub-cultured once a week and incubated at 37° C. in a humidified atmosphere containing 5% CO2. The human THP-1 macrophages were passaged by centrifugation when reaching a confluency of 10^6 cells/mL. In the following experiments, cell seeding is performed with media enriched with 50 ng/ml phorbol 12-myristate 13-acetate (PMA; Sigma-Aldrich) to allow for adherence of cells over 48 h.
Human THP-1 macrophages were cultured as described above and seeded with a density of 200.000 cells/cm^2 in an 8-well μ-slide (ibidi, Gräfelfing, Germany) for 48 h. Labeled NPs were diluted in RPMI cell culture medium to reach a final concentration of 50 μg/mL. Afterwards 200 μL particle suspension was added to the human THP-1 macrophages. […] The image analysis software Fiji was used for the reconstruction of images, and the plugin “co-localization finder” was used to visualize the overlaying signal in white and quantify the fluorescence overlay of different channels.

On to `CN[C@H](CC(C)C)C(=O)N[C@H]1C(=O)N[C@@H](CC(N)=O)C(=O)N[C@H]2C(=O)N[C@H]3C(=O)N[C@H](C(=O)N[C@H](C(=O)O)c4cc(O)cc(O)c4-c4cc3ccc4O)[C@H](O)c3ccc(c(Cl)c3)Oc3cc2cc(c3O[C@@H]2O[C@H](CO)[C@@H](O)[C@H](O)[C@H]2O[C@H]2C[C@](C)(N)[C@H](O)[C@H](C)O2)Oc2ccc(cc2Cl)[C@H]1O` [vancomycin], for which the “survival of intracellular S. aureus” value in data set [1] is “did not cause a significant reduction”.

For `[Zn]` [zinc], in data set [1], the “survival of intracellular S. aureus” value is given as “did not cause a significant reduction”. The “effect on intracellular S. aureus survival” value in data set [1] (systemic zinc 75 μM) was “reduction of intracellular S. aureus survival”. Further, the “amount of alive cells (LIVE/DEAD images)” value in the data set with human THP-1 macrophages [2] was “visually decreased the amount of alive cells”.

FITC-vancomycin: in the data set with human THP-1 macrophages [3] (dissolved, no NPs), the “internalization by human THP-1 macrophages” value was “inability”. Moreover, the “Overlay (%)” value in the data set with human THP-1 macrophages [3] (fluorescently labelled NPs 50 μg/mL in THP-1 macrophages, confocal co-localization) amounted to 0%.
